Test system: U87MG GBM cells
Assay: Xenograft GBM mouse model
Assay type: in vivo
Conditions: TMZ alone, 7.5 mg/kg i.p. every other day
Description: Effect of αCT1-NP in a xenograft GBM mouse model. To assess the in vivo safety and efficacy of αCT1-NPs, a mouse xenograft model of GBM was employed U87MG GBM cells were cultured and 1×10^6 cells were mixed with 100 μL of Matrigel® Matrix and subcutaneously injected into the flanks of SCID/beige anesthetized mice using 23 gauge needles. After 8 days, mice were divided into 2 groups: (i) TMZ alone, and (ii) TMZ+αCT1 particles. The treatment regimen was as follows: TMZ (7.5 mg/kg) was administered by intraperitoneal injection with an insulin syringe every other day starting on day 8 for both groups 1 and 2 mice. αCT1 particles were reconstituted in 1×PBS from −80° C. storage and 100 uL aliquots were prepared and stored at −20° C. The concentration of αCT1 delivered in 1 dose of particles (100 uL) was approximately 8 μM at 1.2 mg particles/kg of mouse body weight. αCT1 particles were delivered at the tumor growth site every other day starting on day 10 for group 2 mice using insulin syringes. Group 2 mice received a total of 6 injections of particles during the course of treatment. This treatment regimen continued for 13 days. Tumor sizes were measured every other day using a caliper. Tumor volume was calculated ((length×width2)/2).

Cn1nnc2c(C(N)=O)ncn2c1=O [TMZ, temozolomide]
tumor volume: no effect

Reference: patent US20210361741A1, “NANOPARTICLE FORMULATIONS AND METHODS OF USE FOR ALPHA CONNEXIN C-TERMINAL PEPTIDES” (FIRSTSTRING RESEARCH, INC., priority 2018, published 2021)
